According to ChEMBL document CHEMBL4765331, “Amides of pyrrole- and thiophene-fused anthraquinone derivatives: A role of the heterocyclic core in antitumor properties” (Eur J Med Chem, 2020):
Active and inactive are the calls of the source. The calls are words filed in the database; no cut-off is given here.

How the values were obtained:
[1] = tested on: CAPAN-1; test: Antiproliferative activity against human CAPAN-1 cells assessed as inhibition of cell proliferation measured after 72 hrs by MTT assay; format: functional, cell-based; conditions: CAPAN-1, 72 h
[2] = tested on: HCT-116; test: Antiproliferative activity against human HCT-116 cells assessed as inhibition of cell proliferation measured after 72 hrs by MTT assay; format: functional, cell-based; conditions: HCT-116, 72 h
[3] = tested on: NCI-H460; test: Antiproliferative activity against human NCI-H460 cells assessed as inhibition of cell proliferation measured after 72 hrs by MTT assay; format: functional, cell-based; conditions: NCI-H460, 72 h
[4] = tested on: HL-60; test: Antiproliferative activity against human HL-60 cells assessed as inhibition of cell proliferation measured after 72 hrs by MTT assay; format: functional, cell-based; conditions: HL-60, 72 h
[5] = Antiproliferative activity against P-gp-positive/doxorubicin-resistant human K562/4 cells assessed as inhibition of cell proliferation measured after 72 hrs by MTT assay; format: functional; conditions: K562/4, 72 h
[6] = tested on: Calf thymus DNA; test: Binding affinity to calf thymus DNA assessed as binding constant by scatchard plot analysis; conditions: Bos taurus
[7] = tested on: Calf thymus DNA; test: Binding affinity to calf thymus DNA assessed as stoichiometry ratio of compound-DNA complex formation by scatchard plot analysis; conditions: Bos taurus
[8] = target: T1, DNA topoisomerase 1 (Homo sapiens) (UniProt P11387); test: Inhibition of human topoisomerase 1-mediated relaxation of supercoiled plasmid using pBR322 plasmid as substrate at 40 uM measured after 30 mins by ethidium bromide dye based agarose gel electrophoresis method
T1 sequence (whole entry): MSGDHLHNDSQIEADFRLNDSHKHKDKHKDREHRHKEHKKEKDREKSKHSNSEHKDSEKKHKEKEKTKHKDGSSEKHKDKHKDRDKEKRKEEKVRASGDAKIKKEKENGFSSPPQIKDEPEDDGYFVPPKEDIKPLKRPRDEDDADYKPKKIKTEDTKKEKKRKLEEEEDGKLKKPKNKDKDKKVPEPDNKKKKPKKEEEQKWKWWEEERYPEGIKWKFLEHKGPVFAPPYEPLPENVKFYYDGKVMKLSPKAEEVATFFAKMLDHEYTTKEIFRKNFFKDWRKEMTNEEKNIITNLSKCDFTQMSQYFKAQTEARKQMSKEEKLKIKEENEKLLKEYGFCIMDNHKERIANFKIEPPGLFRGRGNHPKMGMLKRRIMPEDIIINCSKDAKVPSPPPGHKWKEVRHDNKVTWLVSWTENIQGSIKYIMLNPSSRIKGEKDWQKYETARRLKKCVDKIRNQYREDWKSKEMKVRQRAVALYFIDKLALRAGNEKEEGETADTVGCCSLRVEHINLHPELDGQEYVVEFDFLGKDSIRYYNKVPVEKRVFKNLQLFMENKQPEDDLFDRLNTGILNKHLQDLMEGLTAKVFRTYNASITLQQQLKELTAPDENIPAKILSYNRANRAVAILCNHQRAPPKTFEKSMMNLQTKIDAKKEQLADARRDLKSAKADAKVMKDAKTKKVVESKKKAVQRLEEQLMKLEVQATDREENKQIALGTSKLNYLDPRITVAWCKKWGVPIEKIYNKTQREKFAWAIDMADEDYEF

[9] = Drug uptake in mouse NIH3T3 cells assessed as compound localization in nucleus at 1 uM measured after 15 mins by laser scanning microscope; format: ADME, subcellular; conditions: nih3t3, 0.25 h
[10] = Drug uptake in mouse NIH3T3 cells assessed as compound localization in mitochondria at 1 uM measured after 15 mins by Mitotracker Green FM dye based laser scanning microscope; format: ADME; conditions: nih3t3, 0.25 h
[11] = tested on: K562; test: Induction of apoptosis in human K562 cells assessed as viable cells at 1.6 uM measured after 48 hrs by Annexin V-APC/PI staining based flow cytometry assay (reference value: 85.9%); format: functional; conditions: read-out: Activity
[12] = tested on: K562; test: Induction of apoptosis in human K562 cells assessed as early apoptotic cells at 1.6 uM measured after 24 hrs by Annexin V-APC/PI staining based flow cytometry assay (reference value: 3.4%); format: functional
[13] = tested on: K562; test: Induction of apoptosis in human K562 cells assessed as early apoptotic cells at 1.6 uM measured after 48 hrs by Annexin V-APC/PI staining based flow cytometry assay (reference value: 3.4%); format: functional
[14] = tested on: K562; test: Induction of apoptosis in human K562 cells assessed as late apoptotic cells at 1.6 uM measured after 24 hrs by Annexin V-APC/PI staining based flow cytometry assay (reference value: […]); format: functional
[15] = tested on: K562; test: Induction of apoptosis in human K562 cells assessed as necrotic cells at 1.6 uM measured after 24 hrs by Annexin V-APC/PI staining based flow cytometry assay (reference value: 3.9%); format: functional
[16] = tested on: K562; test: Induction of apoptosis in human K562 cells assessed as necrotic cells at 1.6 uM measured after 48 hrs by Annexin V-APC/PI staining based flow cytometry assay (reference value: 3.9%); format: functional
[17] = tested on: K562; test: Induction of oxidative stress in human K562 cells assessed as increase in intracellular ROS generation at 1.6 uM measured after 40 mins by Deep Red dye based flow cytometry method; format: functional, cell-based
[18] = tested on: P388; test: Antitumour activity against mouse P388 cells xenografted intraperitoneally in BDF1 mouse assessed as mean life span time at 20 mg/kg, ip administered qd for 5 days (reference value: 11.5 +/-0.9 days); format: functional; conditions: dose 20 mg/kg/day; time 5 day
[19] = tested on: P388; test: Antitumour activity against mouse P388 cells xenografted subcutaneously in BDF1 mouse assessed as inhibition of tumour growth at 20 mg/kg, ip administered qd for 5 days starting from day 1 of tumor cell inoculation and measured at day 18 post-tumor cell inoculation; format: functional; conditions: P388, 432 h, time 18 day, read-out: TGI
[20] = tested on: P388; test: Antitumour activity against mouse P388 cells xenografted subcutaneously in BDF1 mouse assessed as inhibition of tumour growth at 60 mg/kg, ip administered qd for 5 days starting from day 1 of tumor cell inoculation and measured at day 18 post-tumor cell inoculation; format: functional; conditions: P388, 432 h, time 18 day, read-out: TGI
[21] = Toxicity in BDF1 mouse xenografted with mouse P388 cells assessed as lethality at 60 mg/kg, ip administered qd for 5 days; format: organism-based; conditions: in vivo, 120 h, dose 60 mg/kg/day, time 5 day
[22] = Selectivity index, ratio of IC50 for human TERT-RPE1 cells to IC50 for human HCT-116 cells; format: toxicity; conditions: TERT-RPE1 cells and HCT-116 cells, read-out: Ratio IC50
[23] = Selectivity index, ratio of IC50 for human TERT-RPE1 cells to IC50 for human K562 cells; format: toxicity; conditions: TERT-RPE1 cells and K562 cells, read-out: Ratio IC50
[24] = Drug uptake in P-gp-positive/doxorubicin-resistant human K562/4 cells; format: ADME
[25] = Drug uptake in human K562i/S9 cells harboring exogenously expressed MDR1/Pgp; format: ADME, cell-based
[26] = tested on: K562; test: Induction of cell cycle arrest in human K562 cells assessed as accumulation at G2/M phase at 2XIC50 measured after 48 hrs by propidium iodide/RNase staining based flow cytometry; format: functional
[27] = tested on: P388; test: Antitumour activity against mouse P388 cells xenografted subcutaneously in ip dosed BDF1 mouse assessed as inhibition of tumour growth administered qd for 5 days starting from day 1 of tumor cell inoculation and measured at day 14 to 18 post-tumor cell inoculation; format: functional, organism-based; conditions: dose 20-60 mg/kg, time 14-18 day

SMILES: Cc1[nH]c2c(O)c3c(c(O)c2c1C(=O)N1CC[C@H](N)C1)C(=O)c1ccccc1C3=O
- IC50 [1]: 500 nM
- IC50 [2]: 900 nM
- IC50 [3]: 900 nM
- IC50 [4]: 900 nM
- IC50 [5]: 21200 nM
- Kb [6]: 14 10^5/M
- Ratio [7]: 4.6
- inhibition [8]: Active
- Drug uptake [9]: Active
- Drug uptake [10]: Active
- viability at 1.6 µM [11]: 56.6%
- Activity [12]: 1.3%
- Activity [13]: 0.9%
- Activity [14]: 8.3%
- Activity [15]: 21%
- Activity [16]: 34.8%
- Activity [17]: inactive
- Time [18]: 17.6 days
- inhibition in vivo at 20 mg/kg [19]: 65%
- inhibition in vivo at 60 mg/kg [20]: 79%
- Activity [21]: Non-Toxic
- selectivity ratio [22]: 18
- selectivity ratio [23]: 18
- Drug uptake [24]: Active
- Drug uptake [25]: Active
- Activity [26]: Active
- Activity [27]: Dose-dependent effect
